Experimental data: US11787762B2, “Tetralin and tetrahydroquinoline compounds as inhibitors of HIF-2alpha” (ARCUS BIOSCIENCES, INC., priority 2020, dated 2023)

Target: T1, HIF-2α (Homo sapiens, UniProt Q99814)
T1 construct: host or cells: 786-O cells stably transduced with Cignal Lenti HIF Luc Reporter (only the reporter was introduced, not HIF-2α)
Experiment: HIF-2α luciferase reporter assay in HIF-Luc-786-O cells
Type: cell-based
Conditions: Table 1, 20 hours incubation
Procedure: Generation of HIF-2α Luciferase 786-O Cell Line:
Stable cell lines were generated by transducing 786-O cells (ATCC, CRL-1932) with Cignal Lenti HIF Luc Reporter lentivirus (CLS-007 L, Qiagen) according to the manufacturer's guidelines. In brief, 0.3×10^6 786-0 cells were transduced with lentivirus at a Multiplicity of Infection (MOI) of 25 for 24 hours. After transduction, cells were replenished with fresh RPMI 1640 Medium (Cat. No. 11875085, Thermo Fisher,) supplemented with 10% FBS (Cat. No. A3160502, Gibco), 2 mM GlutaMax (Cat. No. 35050-061, Invitrogen) and 100 units of penicillin and 100 μg of streptomycin/mL (Cat. No 15070063, Thermo Fisher) for another 24 hours. Antibiotic selection was performed in cell media containing 4 μg/mL of Puromycin. After 7 days of antibiotic selection, stable pools of surviving cells were expanded and used in a luciferase reporter assay.
HIF-2α Luciferase Reporter Assay:
On day one, 20 uL of HIF-Luc-786-0 cells in OptiMem (Cat. No. 31985088, Thermo Fisher) were seeded into each well of a 384 well white opaque plate (Corning 3570) and incubated at 37° C. and 5% CO2. Twenty microliters of 2× test compounds in OptiMem were added to cells after 4 hours of incubation. Final assay conditions comprised 20,000 cells per well in 1% DMSO with test compound concentrations ranging from 50 uM to 0 uM. After 20 hours incubation at 37° C. and 5% CO2, luciferase activity was determined using ONE-Glo Luciferase Assay Reagent (E6110, Promega) following the manufacture's recommended procedure. Briefly, 40 uL of ONE-Glo luciferase reagents were added to each well and luciferase signals were measured using an Envision 2102 Multilabel Reader. Percentage maximum activity in each test well was calculated based on DMSO (maximum activity) and no cell control wells (baseline activity). The IC50 values of the test compounds were determined from compound dose response curves fitted using a standard four parameter fit equation.

T1 sequence (Q99814 whole entry): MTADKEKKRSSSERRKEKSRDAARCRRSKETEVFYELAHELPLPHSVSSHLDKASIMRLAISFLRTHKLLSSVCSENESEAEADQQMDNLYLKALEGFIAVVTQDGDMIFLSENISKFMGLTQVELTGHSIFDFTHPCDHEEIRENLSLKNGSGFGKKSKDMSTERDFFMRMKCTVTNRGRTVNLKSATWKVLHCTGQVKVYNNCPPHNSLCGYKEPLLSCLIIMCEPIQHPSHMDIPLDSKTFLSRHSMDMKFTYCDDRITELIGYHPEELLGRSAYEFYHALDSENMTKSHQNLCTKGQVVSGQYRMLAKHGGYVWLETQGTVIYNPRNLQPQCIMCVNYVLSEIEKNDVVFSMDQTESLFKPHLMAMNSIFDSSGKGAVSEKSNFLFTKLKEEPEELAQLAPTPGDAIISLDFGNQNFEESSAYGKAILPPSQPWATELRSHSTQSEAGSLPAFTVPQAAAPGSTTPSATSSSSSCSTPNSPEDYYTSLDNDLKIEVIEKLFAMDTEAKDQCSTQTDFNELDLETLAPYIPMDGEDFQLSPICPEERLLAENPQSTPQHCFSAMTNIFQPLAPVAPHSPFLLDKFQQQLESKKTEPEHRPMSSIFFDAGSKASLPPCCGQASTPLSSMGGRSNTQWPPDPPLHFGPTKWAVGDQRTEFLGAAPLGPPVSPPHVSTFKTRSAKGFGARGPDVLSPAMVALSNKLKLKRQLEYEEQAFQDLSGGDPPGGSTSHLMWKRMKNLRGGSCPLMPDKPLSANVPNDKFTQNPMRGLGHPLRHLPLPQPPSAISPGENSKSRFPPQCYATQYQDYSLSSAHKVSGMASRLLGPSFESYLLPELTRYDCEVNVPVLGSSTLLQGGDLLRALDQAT

IC50	Compound
> 1000 nM	O=[N+]([O-])c1cc(S(=O)(=O)C(F)(F)F)ccc1N1CCCc2ccc(C(F)F)cc21 [Example 67]

Same assay, conditions: Table 3, 20 hours incubation

IC50	Compound
100 to 1000 nM	N#Cc1cc(F)cc2c1[C@@H](c1ccc(-c3cnc4ncccn34)c3c1CC(F)(F)[C@H]3O)CC[C@@H]2F [Example 233, (5S,8R)-8-[(1S)-2,2-difluoro-1-hydroxy-7-imidazo[1,2-a]pyrimidin-3-yl-1,3-dihydroinden-4-yl]-3,5-difluoro-5,6,7,8-tetrahydronaphthalene-1-carbonitrile]
100 to 1000 nM	Cc1c(-c2ccc([C@H]3CC[C@H](F)c4cc(F)cc(C#N)c43)c3c2[C@H](O)C(F)(F)C3)nnn1C [Example 183, (5S,8R)-8-[(1S)-7-(1,5-dimethyltriazol-4-yl)-2,2-difluoro-1-hydroxy-1,3-dihydroinden-4-yl]-3,5-difluoro-5,6,7,8-tetrahydronaphthalene-1-carbonitrile]
< 100 nM	Cc1ncc(-c2c(F)cc([C@H]3CC[C@H](F)c4cc(F)cc(C#N)c43)c3c2[C@H](O)C(F)(F)C3)c(N)n1 [Example 205, (5S,8R)-8-[(1S)-7-(4-amino-2-methylpyrimidin-5-yl)-2,2,6-trifluoro-1-hydroxy-2,3-dihydro-1H-inden-4-yl]-3,5-difluoro-5,6,7,8-tetrahydronaphthalene-1-carbonitrile]
< 100 nM	N#Cc1cc(F)cc2c1[C@@H](c1ccc(-c3cncs3)c3c1CC(F)(F)[C@H]3O)CC[C@@H]2F [Example 158, (5S,8R)-8-[(1S)-2,2-difluoro-1-hydroxy-7-(1,3-thiazol-5-yl)-1,3-dihydroinden-4-yl]-3,5-difluoro-5,6,7,8-tetrahydronaphthalene-1-carbonitrile]
< 100 nM	CS(=O)(=O)c1c(N)cc([C@H]2CC[C@H](F)c3cc(F)cc(C#N)c32)c2c1[C@H](O)[C@H](F)C2 [Example 212, (5S,8R)-8-[(1S,2R)-6-amino-2-fluoro-1-hydroxy-7-methylsulfonyl-2,3-dihydro-1H-inden-4-yl]-3,5-difluoro-5,6,7,8-tetrahydronaphthalene-1-carbonitrile]
100 to 1000 nM	N#Cc1cc(F)cc2c1[C@@H](c1ccc(Nc3ccccn3)c3c1CC(F)(F)[C@H]3O)CC[C@@H]2F [Example 200, (5S,8R)-8-[(1S)-2,2-difluoro-1-hydroxy-7-(pyridin-2-ylamino)-1,3-dihydroinden-4-yl]-3,5-difluoro-5,6,7,8-tetrahydronaphthalene-1-carbonitrile]
< 100 nM	N#Cc1cc(F)cc2c1[C@@H](c1ccc(-c3cnc4ccccn34)c3c1CC(F)(F)[C@H]3O)CC[C@@H]2F [Example 239, (5S,8R)-8-[(1S)-2,2-difluoro-1-hydroxy-7-imidazo[1,2-a]pyridin-3-yl-1,3-dihydroinden-4-yl]-3,5-difluoro-5,6,7,8-tetrahydronaphthalene-1-carbonitrile]
< 100 nM	Cn1cc(-c2ccc([C@H]3CC[C@H](F)c4cc(F)cc(C#N)c43)c3c2[C@H](O)C(F)(F)C3)nn1 [Example 146, (5S,8R)-8-[(1S)-2,2-difluoro-1-hydroxy-7-(1-methyl-1H-1,2,3-triazol-4-yl)-2,3-dihydro-1H-inden-4-yl]-3,5-difluoro-5,6,7,8-tetrahydronaphthalene-1-carbonitrile]
< 100 nM	Cn1nccc1-c1ccc([C@H]2C[C@H](F)[C@H](F)c3cc(F)cc(C#N)c32)c2c1[C@H](O)C(F)(F)C2 [Example 217, (5R,6S,8R)-8-[(1S)-2,2-difluoro-1-hydroxy-7-(1-methyl-1H-pyrazol-5-yl)-2,3-dihydro-1H-inden-4-yl]-3,5,6-trifluoro-5,6,7,8-tetrahydronaphthalene-1-carbonitrile]
< 100 nM	Cc1nc(N)ccc1-c1ccc([C@H]2C[C@H](F)[C@H](F)c3cc(F)cc(C#N)c32)c2c1[C@H](O)C(F)(F)C2 [Example 216, (5R,6S,8R)-8-[(1S)-7-(6-amino-2-methylpyridin-3-yl)-2,2-difluoro-1-hydroxy-2,3-dihydro-1H-inden-4-yl]-3,5,6-trifluoro-5,6,7,8-tetrahydronaphthalene-1-carbonitrile]
< 100 nM	N#Cc1cc(F)cc2c1[C@@H](c1ccc(-c3cccc(F)c3N)c3c1CC(F)(F)[C@H]3O)CC[C@@H]2F [Example 229, (5S,8R)-8-[(1S)-7-(2-amino-3-fluorophenyl)-2,2-difluoro-1-hydroxy-1,3-dihydroinden-4-yl]-3,5-difluoro-5,6,7,8-tetrahydronaphthalene-1-carbonitrile]
100 to 1000 nM	N#Cc1cc(F)cc2c1[C@@H](c1ccc(-c3cnncc3N)c3c1CC(F)(F)[C@H]3O)CC[C@@H]2F [Example 178, (5S,8R)-8-[(1S)-7-(5-aminopyridazin-4-yl)-2,2-difluoro-1-hydroxy-1,3-dihydroinden-4-yl]-3,5-difluoro-5,6,7,8-tetrahydronaphthalene-1-carbonitrile]
100 to 1000 nM	N#Cc1cc(F)cc2c1[C@@H](c1ccc(-c3cccc4c3CC(=O)N4)c3c1CC(F)(F)[C@H]3O)CC[C@@H]2F [Example 164, (5S,8R)-8-[(1S)-2,2-difluoro-1-hydroxy-7-(2-oxo-2,3-dihydro-1H-indol-4-yl)-2,3-dihydro-1H-inden-4-yl]-3,5-difluoro-5,6,7,8-tetrahydronaphthalene-1-carbonitrile]
< 100 nM	N#Cc1cc(N)ncc1-c1ccc([C@H]2CC[C@H](F)c3cc(F)cc(C#N)c32)c2c1[C@H](O)C(F)(F)C2 [Example 149, 2-amino-5-[(3S)-7-[(1R,4S)-8-cyano-4,6-difluoro-1,2,3,4-tetrahydronaphthalen-1-yl]-2,2-difluoro-3-hydroxy-1,3-dihydroinden-4-yl] pyridine-4-carbonitrile]
100 to 1000 nM	N#Cc1cc(F)cc2c1[C@@H](c1ccc(-c3ccncc3)c3c1CC(F)(F)[C@H]3O)CC[C@@H]2F [Example 156, (5S,8R)-8-[(1S)-2,2-difluoro-1-hydroxy-7-pyridin-4-yl-1,3-dihydroinden-4-yl]-3,5-difluoro-5,6,7,8-tetrahydronaphthalene-1-carbonitrile]
< 100 nM	N#Cc1cc(F)cc2c1[C@@H](c1ccc(-c3cnc4cccnn34)c3c1CC(F)(F)[C@H]3O)CC[C@@H]2F [Example 237, (5S,8R)-8-[(1S)-2,2-difluoro-1-hydroxy-7-imidazo[1,2-b]pyridazin-3-yl-1,3-dihydroinden-4-yl]-3,5-difluoro-5,6,7,8-tetrahydronaphthalene-1-carbonitrile]
100 to 1000 nM	Cc1nc2ccccn2c1-c1ccc([C@H]2CC[C@H](F)c3cc(F)cc(C#N)c32)c2c1[C@H](O)C(F)(F)C2 [Example 231, (5S,8R)-8-[(1S)-2,2-difluoro-1-hydroxy-7-(2-methylimidazo[1,2-a]pyridin-3-yl)-1,3-dihydroinden-4-yl]-3,5-difluoro-5,6,7,8-tetrahydronaphthalene-1-carbonitrile]
< 100 nM	Cc1ccccc1-c1ccc([C@H]2CC[C@H](F)c3cc(F)cc(C#N)c32)c2c1[C@H](O)C(F)(F)C2 [Example 144, (5S,8R)-8-[(1S)-2,2-difluoro-1-hydroxy-7-(2-methylphenyl)-2,3-dihydro-1H-inden-4-yl]-3,5-difluoro-5,6,7,8-tetrahydronaphthalene-1-carbonitrile]
